According to PubChem BioAssay (NCI):
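Results reflect a 48-hour exposure of cells in 96-well plates to compound at five concentrations. The concentration for 50% growth inhibition is given as GI50. The concentration for full growth arrest is given as TGI.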

Assays:
Assay in all cases: growth of human tumour cells (NCI), 48 h
UO-31 renal = system: UO-31 renal
786-0 renal = system: 786-0 renal
NCI-H226 lung = system: NCI-H226 lung
ACHN renal = system: ACHN renal
OVCAR-5 ovarian = system: OVCAR-5 ovarian
A549 NSCLC = system: A549 NSCLC
TK-10 renal = system: TK-10 renal
A498 renal = system: A498 renal
NCI-H522 lung = system: NCI-H522 lung
HL-60(TB) leukemia = system: HL-60(TB) leukemia
HT29 colon = system: HT29 colon
SNB-75 CNS = system: SNB-75 CNS
PC-3 prostate = system: PC-3 prostate
T-47D breast = system: T-47D breast
IGROV1 ovarian = system: IGROV1 ovarian
HCT-116 colon = system: HCT-116 colon
BT-549 breast = system: BT-549 breast
NCI-H460 lung = system: NCI-H460 lung
K-562 leukemia = system: K-562 leukemia
OVCAR-3 ovarian = system: OVCAR-3 ovarian
NCI-H23 lung = system: NCI-H23 lung
SF-268 CNS = system: SF-268 CNS
OVCAR-8 ovarian = system: OVCAR-8 ovarian
LOX IMVI melanoma = system: LOX IMVI melanoma
EKVX NSCLC = system: EKVX NSCLC
SK-MEL-5 melanoma = system: SK-MEL-5 melanoma
HCC-2998 colon = system: HCC-2998 colon
M14 melanoma = system: M14 melanoma
SF-295 CNS = system: SF-295 CNS
SK-OV-3 ovarian = system: SK-OV-3 ovarian
COLO 205 colon = system: COLO 205 colon
U251 CNS = system: U251 CNS
SF-539 CNS = system: SF-539 CNS
MOLT-4 leukemia = system: MOLT-4 leukemia
SN12C renal = system: SN12C renal
MALME-3M melanoma = system: MALME-3M melanoma
RXF 393 renal = system: RXF 393 renal
CAKI-1 renal = system: CAKI-1 renal
UACC-257 melanoma = system: UACC-257 melanoma
SK-MEL-2 melanoma = system: SK-MEL-2 melanoma
SW-620 colon = system: SW-620 colon
MDA-MB-231 breast = system: MDA-MB-231 breast
HS 578T breast = system: HS 578T breast
SK-MEL-28 melanoma = system: SK-MEL-28 melanoma
HCT-15 colon = system: HCT-15 colon
SR leukemia = system: SR leukemia
UACC-62 melanoma = system: UACC-62 melanoma
DU-145 prostate = system: DU-145 prostate
OVCAR-4 ovarian = system: OVCAR-4 ovarian
RPMI-8226 leukemia = system: RPMI-8226 leukemia
HOP-62 NSCLC = system: HOP-62 NSCLC
CCRF-CEM leukemia = system: CCRF-CEM leukemia
SNB-19 CNS = system: SNB-19 CNS
MDA-MB-435 = system: MDA-MB-435
NCI/ADR-RES ovarian = system: NCI/ADR-RES ovarian
KM12 colon = system: KM12 colon
MCF7 breast = system: MCF7 breast

CN(Cc1cccc2ccccc12)Cc1cccc2ccccc12
TGI (UO-31 renal): > 100 µM
TGI (786-0 renal): > 100 µM
TGI (NCI-H226 lung): 86.4 µM
TGI (ACHN renal): > 100 µM
TGI (OVCAR-5 ovarian): > 100 µM
TGI (A549 NSCLC): > 100 µM
TGI (TK-10 renal): > 100 µM
TGI (A498 renal): 80.1 µM
TGI (NCI-H522 lung): 45.4 µM
TGI (HL-60(TB) leukemia): 33.4 µM
TGI (HT29 colon): > 100 µM
TGI (SNB-75 CNS): > 100 µM
TGI (PC-3 prostate): 57.7 µM
TGI (T-47D breast): 72.2 µM
TGI (IGROV1 ovarian): > 100 µM
TGI (HCT-116 colon): 55.8 µM
TGI (BT-549 breast): > 100 µM
TGI (NCI-H460 lung): > 100 µM
TGI (K-562 leukemia): > 100 µM
TGI (OVCAR-3 ovarian): > 100 µM
TGI (NCI-H23 lung): > 100 µM
TGI (SF-268 CNS): > 100 µM
TGI (OVCAR-8 ovarian): > 100 µM
TGI (LOX IMVI melanoma): > 100 µM
TGI (EKVX NSCLC): > 100 µM
TGI (SK-MEL-5 melanoma): 33.6 µM
TGI (HCC-2998 colon): 57.9 µM
TGI (M14 melanoma): 74.3 µM
TGI (SF-295 CNS): > 100 µM
TGI (SK-OV-3 ovarian): > 100 µM
TGI (COLO 205 colon): 35.2 µM
TGI (U251 CNS): 49.6 µM
TGI (SF-539 CNS): 59.6 µM
TGI (MOLT-4 leukemia): 35 µM
TGI (SN12C renal): > 100 µM
TGI (MALME-3M melanoma): 63.4 µM
TGI (RXF 393 renal): > 100 µM
TGI (CAKI-1 renal): > 100 µM
TGI (UACC-257 melanoma): > 100 µM
TGI (SK-MEL-2 melanoma): 31 µM
TGI (SW-620 colon): 57.9 µM
TGI (MDA-MB-231 breast): 64.1 µM
TGI (HS 578T breast): > 100 µM
TGI (SK-MEL-28 melanoma): > 100 µM
TGI (HCT-15 colon): > 100 µM
TGI (SR leukemia): 90.8 µM
TGI (UACC-62 melanoma): > 100 µM
TGI (DU-145 prostate): > 100 µM
TGI (OVCAR-4 ovarian): > 100 µM
TGI (RPMI-8226 leukemia): 50.1 µM
TGI (HOP-62 NSCLC): > 100 µM
TGI (CCRF-CEM leukemia): 34 µM
TGI (SNB-19 CNS): > 100 µM
TGI (MDA-MB-435): > 100 µM
TGI (NCI/ADR-RES ovarian): > 100 µM
TGI (KM12 colon): > 100 µM
TGI (MCF7 breast): 45 µM

COC(=O)C1CCCN1C(=O)[C@@H]1CCCN1C(=O)[C@H](Cc1c[nH]c2ccccc12)NC(=S)Nc1cc(C(F)(F)F)cc(C(F)(F)F)c1 (some centres not stated)
GI50 (UO-31 renal): 3.63 µM
TGI (UO-31 renal): 14.5 µM
GI50 (786-0 renal): 2.52 µM
TGI (786-0 renal): 6.86 µM
GI50 (NCI-H226 lung): 2.26 µM
TGI (NCI-H226 lung): 8.01 µM
GI50 (A549 NSCLC): 1.98 µM
TGI (A549 NSCLC): 6.92 µM
GI50 (TK-10 renal): 2.11 µM
TGI (TK-10 renal): 5 µM
GI50 (A498 renal): 2.15 µM
TGI (A498 renal): 6.65 µM
GI50 (NCI-H522 lung): 2.15 µM
TGI (NCI-H522 lung): 4.99 µM
GI50 (HL-60(TB) leukemia): 2.35 µM
TGI (HL-60(TB) leukemia): 5.95 µM
GI50 (HT29 colon): 1.89 µM
TGI (HT29 colon): 3.44 µM
GI50 (SNB-75 CNS): 2.48 µM
TGI (SNB-75 CNS): 8.92 µM
GI50 (PC-3 prostate): 1.91 µM
TGI (PC-3 prostate): 5.32 µM
GI50 (T-47D breast): 1.98 µM
TGI (T-47D breast): 7.2 µM
GI50 (IGROV1 ovarian): 3.34 µM
TGI (IGROV1 ovarian): 10.9 µM
GI50 (HCT-116 colon): 1.72 µM
TGI (HCT-116 colon): 3.34 µM
GI50 (BT-549 breast): 2.88 µM
TGI (BT-549 breast): 8.03 µM
GI50 (NCI-H460 lung): 1.94 µM
TGI (NCI-H460 lung): 3.79 µM
GI50 (K-562 leukemia): 2.92 µM
TGI (K-562 leukemia): 13.3 µM
GI50 (OVCAR-3 ovarian): 2.03 µM
TGI (OVCAR-3 ovarian): 3.85 µM
GI50 (NCI-H23 lung): 2.78 µM
TGI (NCI-H23 lung): 10 µM
GI50 (SF-268 CNS): 3.46 µM
TGI (SF-268 CNS): 13.6 µM
GI50 (OVCAR-8 ovarian): 1.92 µM
TGI (OVCAR-8 ovarian): 4.2 µM
GI50 (LOX IMVI melanoma): 1.91 µM
TGI (LOX IMVI melanoma): 4.28 µM
GI50 (EKVX NSCLC): 1.91 µM
TGI (EKVX NSCLC): 7.83 µM
GI50 (SK-MEL-5 melanoma): 2.63 µM
TGI (SK-MEL-5 melanoma): 7.61 µM
GI50 (HCC-2998 colon): 1.96 µM
TGI (HCC-2998 colon): 4.5 µM
GI50 (M14 melanoma): 2.19 µM
TGI (M14 melanoma): 5.23 µM
GI50 (SF-295 CNS): 1.77 µM
TGI (SF-295 CNS): 4.08 µM
GI50 (SK-OV-3 ovarian): 2.95 µM
TGI (SK-OV-3 ovarian): 11.4 µM
GI50 (COLO 205 colon): 1.72 µM
TGI (COLO 205 colon): 3.21 µM
GI50 (U251 CNS): 1.67 µM
TGI (U251 CNS): 3.81 µM
GI50 (SF-539 CNS): 2.43 µM
TGI (SF-539 CNS): 5.85 µM
GI50 (MOLT-4 leukemia): 2.04 µM
TGI (MOLT-4 leukemia): 8.62 µM
GI50 (SN12C renal): 2.82 µM
TGI (SN12C renal): 10.5 µM
GI50 (MALME-3M melanoma): 3.35 µM
TGI (MALME-3M melanoma): 12.7 µM
GI50 (RXF 393 renal): 1.78 µM
TGI (RXF 393 renal): 4.4 µM
GI50 (CAKI-1 renal): 2.73 µM
TGI (CAKI-1 renal): 11.1 µM
GI50 (UACC-257 melanoma): 2.4 µM
TGI (UACC-257 melanoma): 8.17 µM
GI50 (SK-MEL-2 melanoma): 2.24 µM
TGI (SK-MEL-2 melanoma): 4.25 µM
GI50 (SW-620 colon): 3.68 µM
TGI (SW-620 colon): 12.6 µM
GI50 (MDA-MB-231 breast): 1.62 µM
TGI (MDA-MB-231 breast): 3.4 µM
GI50 (HS 578T breast): 3.1 µM
TGI (HS 578T breast): 11.4 µM
GI50 (SK-MEL-28 melanoma): 3.54 µM
TGI (SK-MEL-28 melanoma): 10.7 µM
GI50 (HCT-15 colon): 3.41 µM
TGI (HCT-15 colon): 12.8 µM
GI50 (SR leukemia): 1.92 µM
TGI (SR leukemia): 5.03 µM
GI50 (UACC-62 melanoma): 1.7 µM
TGI (UACC-62 melanoma): 4.08 µM
GI50 (DU-145 prostate): 2.52 µM
TGI (DU-145 prostate): 6.47 µM
GI50 (OVCAR-4 ovarian): 3.18 µM
TGI (OVCAR-4 ovarian): 11.2 µM
GI50 (RPMI-8226 leukemia): 2.93 µM
TGI (RPMI-8226 leukemia): 8 µM
GI50 (HOP-62 NSCLC): 2.17 µM
TGI (HOP-62 NSCLC): 6.5 µM
GI50 (CCRF-CEM leukemia): 2.75 µM
TGI (CCRF-CEM leukemia): 8.55 µM
GI50 (SNB-19 CNS): 2.7 µM
TGI (SNB-19 CNS): 12.1 µM
GI50 (MDA-MB-435): 3.03 µM
TGI (MDA-MB-435): 12.4 µM
GI50 (NCI/ADR-RES ovarian): 3.85 µM
TGI (NCI/ADR-RES ovarian): 22.1 µM
GI50 (KM12 colon): 1.92 µM
TGI (KM12 colon): 4.03 µM
GI50 (MCF7 breast): 2.19 µM
TGI (MCF7 breast): 6 µM
